From ChEMBL document CHEMBL1201862, “PubChem BioAssay data set” (2004)
The source made the active and inactive calls. For most assays here, no stated cut-off is given here; in the data, active = IC50 of 10 µM or less and inactive = more.

Experiments:
CHO-K1 = assay: (§1) Counterscreen for antagonists of the orexin 1 receptor (OX1R; HCRTR1): Homogeneous time resolved fluorescence (HTRF)-based cell-based dose response assay to identify antagonists of the parental CHO-K1 cell line. [Related pubchem assays (depositor defined):AID434989, AID435008, AID463079, AID485270, AID492963, AID492964, AID492965, AID493232, AID504699, AID504701]; format: functional; details: Cricetulus griseus
[1] = as §1, with “Fluorescence-based” for “Homogeneous time resolved fluorescence (HTRF)-based”, “cell-based high throughput” for “cell-based”, “CHO” for “CHO-K1”; format: functional
[2] = biological target: T1, Orexin/Hypocretin receptor type 1 (Homo sapiens, UniProt O43613); assay: Homogeneous Time Resolved Fluorescence (HTRF)-based cell-based high throughput dose response assay for antagonists of the orexin 1 receptor (OX1R; HCRTR1). [Related pubchem assays (depositor defined):AID434989, AID435008, AID463079, AID485270, AID492963, AID492964, AID492965, AID493232, AID504717, AID504718]; format: functional
T1 sequence (O43613 whole entry): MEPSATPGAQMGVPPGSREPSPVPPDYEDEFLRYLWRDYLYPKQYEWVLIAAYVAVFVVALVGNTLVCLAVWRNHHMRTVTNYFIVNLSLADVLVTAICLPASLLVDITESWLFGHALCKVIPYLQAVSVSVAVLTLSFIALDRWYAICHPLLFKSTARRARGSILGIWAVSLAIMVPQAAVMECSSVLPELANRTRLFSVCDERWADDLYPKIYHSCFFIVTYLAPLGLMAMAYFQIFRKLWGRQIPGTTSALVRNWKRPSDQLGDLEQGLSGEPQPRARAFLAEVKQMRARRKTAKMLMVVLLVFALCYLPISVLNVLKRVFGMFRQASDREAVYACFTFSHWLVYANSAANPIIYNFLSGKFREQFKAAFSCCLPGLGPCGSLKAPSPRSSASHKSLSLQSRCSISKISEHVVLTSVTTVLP

[3] = biological target: T1, Orexin/Hypocretin receptor type 1; assay: Fluorescence-based cell-based high throughput dose response assay for antagonists of the orexin 1 receptor (OX1R; HCRTR1). [Related pubchem assays (depositor defined):AID434989, AID435008, AID463079, AID485270, AID492963, AID492964, AID492965, AID493232, AID504717, AID504718]; format: functional
Orexin receptor type 2 [4] = biological target: T2, Orexin receptor type 2 (Homo sapiens, UniProt O43614); assay: Counterscreen assay for antagonists of the orexin 1 receptor (OX1R; HCRTR1): Fluorescence-based cell-based dose response assay for antagonists of the orexin 2 receptor (OX2R; HCRTR2), run by assay provider.; format: functional
T2 sequence (O43614 whole entry): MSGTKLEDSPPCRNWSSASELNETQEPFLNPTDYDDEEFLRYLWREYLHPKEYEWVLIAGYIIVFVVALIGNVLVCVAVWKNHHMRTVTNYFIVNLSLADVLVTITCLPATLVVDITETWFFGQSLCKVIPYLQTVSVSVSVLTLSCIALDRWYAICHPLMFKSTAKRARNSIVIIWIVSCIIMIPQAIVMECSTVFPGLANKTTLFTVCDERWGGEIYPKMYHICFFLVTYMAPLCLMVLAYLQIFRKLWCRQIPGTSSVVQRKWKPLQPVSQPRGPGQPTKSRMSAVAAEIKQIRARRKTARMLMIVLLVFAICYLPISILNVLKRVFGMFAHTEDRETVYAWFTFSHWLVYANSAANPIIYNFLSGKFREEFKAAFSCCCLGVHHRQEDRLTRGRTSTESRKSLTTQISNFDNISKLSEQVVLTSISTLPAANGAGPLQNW

Orexin receptor type 2 [5] = biological target: T2, Orexin receptor type 2; assay: Counterscreen assay for antagonists of the orexin 1 receptor (OX1R; HCRTR1): Homogeneous Time Resolved Fluorescence (HTRF)-based cell-based dose response assay for antagonists of the orexin 2 receptor (OX2R; HCRTR2), run by assay provider.; format: functional
[6] = biological target: T3, Heat shock factor protein 1 (Mus musculus, UniProt P38532); assay: enhancement of HSF1-driven luciferase signal – cell-based, NIH3T3, luminescence, dose retest, confirmation (AID 435004); format: functional;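 further: stress induced by proteasome inhibitor MG132 added 30 min after compound; luciferase reporter driven by HSF1 response element in NIH3T3 cells; actives raise luminescence as potentiators of the MG132 stress response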
T3 sequence (P38532 whole entry): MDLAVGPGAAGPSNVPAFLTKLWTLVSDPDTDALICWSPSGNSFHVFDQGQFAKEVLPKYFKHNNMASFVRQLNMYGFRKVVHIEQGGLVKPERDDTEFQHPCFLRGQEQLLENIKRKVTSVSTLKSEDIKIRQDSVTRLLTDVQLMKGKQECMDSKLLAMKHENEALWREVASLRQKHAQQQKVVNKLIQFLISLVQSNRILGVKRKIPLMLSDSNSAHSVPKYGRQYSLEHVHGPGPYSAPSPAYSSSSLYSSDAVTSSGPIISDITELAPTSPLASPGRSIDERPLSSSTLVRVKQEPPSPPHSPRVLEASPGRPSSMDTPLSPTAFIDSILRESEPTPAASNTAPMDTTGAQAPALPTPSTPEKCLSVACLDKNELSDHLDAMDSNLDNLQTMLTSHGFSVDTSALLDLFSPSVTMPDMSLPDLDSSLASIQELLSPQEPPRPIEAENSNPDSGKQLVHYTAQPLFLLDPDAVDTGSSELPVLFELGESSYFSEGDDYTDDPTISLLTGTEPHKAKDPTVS

[7] = biological target: Hepatocyte nuclear factor 4-alpha (Homo sapiens, UniProt P41235); format: functional, cell-based;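 further: biochemical luminescence-based dose-response counterscreen measuring inhibition of HNF4 dimerization, run alongside a screen for blockers of ABHD5–perilipin-5 interaction; split luciferase complementation of HNF4 fusion proteins in cell lysate measuring dimerization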
[8] = biological target: Ras and Rab interactor 1/Tyrosine-protein kinase ABL1 (Homo sapiens, UniProt P00519+Q13671); format: functional;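 further: biochemical TR-FRET dose-response test measuring inhibition of binding between Rin1 and Abl proteins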
[9] = biological target: T4, Calpain-2 catalytic subunit (Sus scrofa, UniProt P43367); assay: m-calpain protease blockers, concentration series – biochemical, fluorogenic peptide substrate, dose response (AID 1420); format: functional
T4 sequence (P43367 whole entry): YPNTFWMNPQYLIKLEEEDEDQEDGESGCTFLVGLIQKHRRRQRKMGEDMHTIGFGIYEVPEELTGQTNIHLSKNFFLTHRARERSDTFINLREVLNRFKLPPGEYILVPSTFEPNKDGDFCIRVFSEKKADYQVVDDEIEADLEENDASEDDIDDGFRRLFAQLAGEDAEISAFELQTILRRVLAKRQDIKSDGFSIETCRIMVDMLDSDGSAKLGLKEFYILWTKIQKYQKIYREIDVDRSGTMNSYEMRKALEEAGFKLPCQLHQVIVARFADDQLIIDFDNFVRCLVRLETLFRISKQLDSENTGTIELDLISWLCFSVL

Melanocortin receptor 4 = Melanocortin receptor 4 (Homo sapiens, UniProt P32245); format: functional, cell-based;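 further: Cell-based assay with luminescence read-out, confirmatory dose-response testing for agonist activity of biased ligands at MC4R; human U2OS cells with tagged receptor and beta-arrestin; potency of agonists that increase receptor coupling to beta-arrestin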
[10] = biological target: Nuclear receptor subfamily 5 group A member 2 (Homo sapiens, UniProt O00482); format: functional, cell-based;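 further: HEK293T cells transfected with LRH-1 and a StAR promoter luciferase reporter; potency for inhibitors that lower LRH-1 driven reporter light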
Steroidogenic factor 1 = Steroidogenic factor 1 (Homo sapiens, UniProt Q13285); assay: Counterscreen for inverse agonists of the liver receptor homolog-1 (LRH-1; NR5A2): Luminescence-based cell-based high throughput dose response assay to identify inverse agonists of the Steroidogenic Factor 1 Nuclear Receptor (SF1; NR5A1).; format: functional
[11] = nonselective StAR promoter luciferase inhibitors – cell-based, luminescence, luciferase reporter, counter-screen for LRH-1 inverse agonist project, dose response (AID 651969); format: functional

Chain of Melanocortin receptor 4 (P32245 whole entry): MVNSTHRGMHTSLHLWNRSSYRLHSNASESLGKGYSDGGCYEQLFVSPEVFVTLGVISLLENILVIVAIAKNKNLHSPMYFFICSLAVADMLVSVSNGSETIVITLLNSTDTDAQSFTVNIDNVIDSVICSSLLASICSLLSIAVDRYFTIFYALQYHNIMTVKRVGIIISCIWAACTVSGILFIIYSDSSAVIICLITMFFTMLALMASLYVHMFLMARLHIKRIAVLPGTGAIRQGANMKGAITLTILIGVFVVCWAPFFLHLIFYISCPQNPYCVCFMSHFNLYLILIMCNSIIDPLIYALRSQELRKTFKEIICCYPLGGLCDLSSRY
Chain of Nuclear receptor subfamily 5 group A member 2 (O00482 whole entry): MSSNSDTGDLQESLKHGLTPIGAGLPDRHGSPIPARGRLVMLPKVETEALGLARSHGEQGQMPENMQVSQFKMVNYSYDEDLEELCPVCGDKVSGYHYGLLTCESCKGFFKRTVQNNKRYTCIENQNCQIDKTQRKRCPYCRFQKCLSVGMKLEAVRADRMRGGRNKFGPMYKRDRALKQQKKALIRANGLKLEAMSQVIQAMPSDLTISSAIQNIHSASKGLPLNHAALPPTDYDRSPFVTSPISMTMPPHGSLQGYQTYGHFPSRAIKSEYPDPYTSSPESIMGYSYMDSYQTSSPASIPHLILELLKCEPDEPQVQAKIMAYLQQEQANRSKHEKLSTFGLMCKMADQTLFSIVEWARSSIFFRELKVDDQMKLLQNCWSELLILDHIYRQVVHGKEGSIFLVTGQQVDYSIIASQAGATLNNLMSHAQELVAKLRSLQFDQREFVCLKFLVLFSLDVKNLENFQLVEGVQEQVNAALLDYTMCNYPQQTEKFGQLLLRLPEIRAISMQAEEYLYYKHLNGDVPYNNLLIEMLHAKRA
Chain of Steroidogenic factor 1 (Q13285 whole entry): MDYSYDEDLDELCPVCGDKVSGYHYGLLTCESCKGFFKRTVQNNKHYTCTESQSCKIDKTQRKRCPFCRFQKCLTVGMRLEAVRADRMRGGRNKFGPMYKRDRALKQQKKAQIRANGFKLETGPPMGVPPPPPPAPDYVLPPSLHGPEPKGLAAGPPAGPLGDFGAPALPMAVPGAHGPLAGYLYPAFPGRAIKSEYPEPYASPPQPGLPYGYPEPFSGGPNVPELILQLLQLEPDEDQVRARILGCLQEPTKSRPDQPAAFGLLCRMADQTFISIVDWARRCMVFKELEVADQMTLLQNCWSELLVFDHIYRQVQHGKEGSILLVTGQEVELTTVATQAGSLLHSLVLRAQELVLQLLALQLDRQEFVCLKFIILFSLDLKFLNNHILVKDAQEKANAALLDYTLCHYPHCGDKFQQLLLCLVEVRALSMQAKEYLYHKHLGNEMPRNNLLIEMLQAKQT
Chain of Ras and Rab interactor 1/Tyrosine-protein kinase ABL1 (P00519 whole entry): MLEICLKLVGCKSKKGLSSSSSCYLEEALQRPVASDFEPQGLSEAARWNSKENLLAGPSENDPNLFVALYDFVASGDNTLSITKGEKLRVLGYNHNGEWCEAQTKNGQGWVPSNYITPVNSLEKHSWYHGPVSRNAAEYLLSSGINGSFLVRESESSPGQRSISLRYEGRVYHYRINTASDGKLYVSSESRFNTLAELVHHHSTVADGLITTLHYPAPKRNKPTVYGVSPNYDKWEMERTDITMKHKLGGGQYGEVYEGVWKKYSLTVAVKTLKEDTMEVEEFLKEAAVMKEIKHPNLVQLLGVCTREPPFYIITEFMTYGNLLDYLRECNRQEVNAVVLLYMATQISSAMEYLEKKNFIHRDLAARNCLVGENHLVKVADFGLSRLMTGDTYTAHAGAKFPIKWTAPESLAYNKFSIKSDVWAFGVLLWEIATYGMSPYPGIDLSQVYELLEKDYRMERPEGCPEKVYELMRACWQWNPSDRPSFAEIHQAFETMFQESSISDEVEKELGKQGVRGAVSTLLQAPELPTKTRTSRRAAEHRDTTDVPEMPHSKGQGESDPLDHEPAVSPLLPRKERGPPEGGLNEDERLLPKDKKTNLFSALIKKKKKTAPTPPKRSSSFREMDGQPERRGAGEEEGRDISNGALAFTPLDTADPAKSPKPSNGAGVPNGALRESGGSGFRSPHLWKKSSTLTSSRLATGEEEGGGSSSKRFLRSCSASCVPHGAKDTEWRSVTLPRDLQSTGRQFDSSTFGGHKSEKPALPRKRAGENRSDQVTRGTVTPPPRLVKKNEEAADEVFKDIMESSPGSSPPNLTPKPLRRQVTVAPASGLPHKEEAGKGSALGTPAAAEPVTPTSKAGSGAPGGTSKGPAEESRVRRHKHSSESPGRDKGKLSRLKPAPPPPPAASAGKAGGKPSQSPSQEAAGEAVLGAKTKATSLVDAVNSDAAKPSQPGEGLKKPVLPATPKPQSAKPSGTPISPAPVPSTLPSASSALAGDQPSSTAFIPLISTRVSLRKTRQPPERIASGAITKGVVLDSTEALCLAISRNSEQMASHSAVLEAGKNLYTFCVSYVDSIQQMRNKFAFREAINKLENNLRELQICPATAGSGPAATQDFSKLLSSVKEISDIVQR
Chain of Ras and Rab interactor 1/Tyrosine-protein kinase ABL1 (Q13671 whole entry): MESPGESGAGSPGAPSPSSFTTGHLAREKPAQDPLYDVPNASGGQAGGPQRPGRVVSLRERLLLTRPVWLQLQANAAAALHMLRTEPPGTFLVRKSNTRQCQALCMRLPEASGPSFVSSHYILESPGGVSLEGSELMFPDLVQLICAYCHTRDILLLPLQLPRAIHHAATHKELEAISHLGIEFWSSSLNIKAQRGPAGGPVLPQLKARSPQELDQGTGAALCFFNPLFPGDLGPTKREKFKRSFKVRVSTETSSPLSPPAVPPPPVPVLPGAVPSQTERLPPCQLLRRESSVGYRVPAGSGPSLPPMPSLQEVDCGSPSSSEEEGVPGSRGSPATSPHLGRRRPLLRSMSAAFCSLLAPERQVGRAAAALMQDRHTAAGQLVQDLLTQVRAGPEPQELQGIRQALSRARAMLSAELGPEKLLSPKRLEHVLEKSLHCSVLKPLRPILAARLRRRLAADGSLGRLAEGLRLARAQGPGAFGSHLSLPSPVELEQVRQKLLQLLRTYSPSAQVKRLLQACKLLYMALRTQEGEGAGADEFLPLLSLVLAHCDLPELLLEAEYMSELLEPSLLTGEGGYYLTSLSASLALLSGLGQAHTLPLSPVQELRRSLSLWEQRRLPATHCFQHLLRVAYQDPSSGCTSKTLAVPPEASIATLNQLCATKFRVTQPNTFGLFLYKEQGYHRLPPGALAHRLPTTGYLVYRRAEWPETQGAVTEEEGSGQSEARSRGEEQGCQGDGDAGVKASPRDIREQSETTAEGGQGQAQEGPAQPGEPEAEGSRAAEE
Chain of Hepatocyte nuclear factor 4-alpha (P41235 whole entry, the tested form may be a part): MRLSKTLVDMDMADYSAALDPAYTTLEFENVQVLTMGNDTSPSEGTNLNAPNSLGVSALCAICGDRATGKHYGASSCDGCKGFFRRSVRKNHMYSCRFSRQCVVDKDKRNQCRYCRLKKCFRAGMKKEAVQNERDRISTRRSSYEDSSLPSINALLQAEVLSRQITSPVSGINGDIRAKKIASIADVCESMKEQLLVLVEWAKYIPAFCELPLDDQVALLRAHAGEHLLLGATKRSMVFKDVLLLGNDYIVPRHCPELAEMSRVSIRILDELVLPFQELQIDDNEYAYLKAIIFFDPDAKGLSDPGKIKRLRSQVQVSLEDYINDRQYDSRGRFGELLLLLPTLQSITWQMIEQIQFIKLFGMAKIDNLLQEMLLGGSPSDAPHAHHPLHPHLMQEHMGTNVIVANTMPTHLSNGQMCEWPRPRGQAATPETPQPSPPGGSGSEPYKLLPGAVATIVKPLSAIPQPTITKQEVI

SMILES | IC50 (CHO-K1) | IC50 [1] | IC50 [2] | IC50 [3] | IC50 (Orexin receptor type 2 [4]) | IC50 (Orexin receptor type 2 [5]) | further results
Cc1cc(Br)cc2c1NC(=O)C2(c1c(C)n(C)n(-c2ccccc2)c1=O)c1c(C)n(C)n(-c2ccccc2)c1=O | > 66.2 µM (inactive) | > 49.8 µM (inactive) | 1.28 µM (active) | 6.52 µM (active) | > 88.8 µM (inactive) | 0.99 µM (active) | –
CC(=O)Cc1cc(O)c2ccccc2c1OC(=O)c1ccccc1 | – | – | – | – | – | – | EC50 [6]: > 260 µM (inactive); IC50 [7]: 14.6 µM (inactive)
CN(CCc1ccccc1)C(=O)c1ccc(NC(=O)Cc2ccc(NC(=O)C3CCN(C(=O)C4CCCCC4)CC3)cc2)cc1 | – | – | – | – | – | – | IC50 [8]: 11.2 µM (inactive)
COc1cc(NS(=O)(=O)c2ccc(NC(=S)NC(=O)c3sc4ccccc4c3Cl)cc2)ncn1 | – | – | – | – | – | – | IC50 [9]: 11.4 µM (not active); EC50 (Melanocortin receptor 4): > 89.2 µM (inactive)
Cn1c(N)c(C(=O)N/N=C/c2ccccc2)sc1=S | > 66.2 µM (inactive) | > 49.7 µM (inactive) | 1.59 µM (active) | 2.75 µM (active) | > 88.8 µM (inactive) | > 50 µM (inactive) | –
O=C(CN1C(=O)NC2(CCCC2)C1=O)NCCc1ccc(F)cc1 | – | – | – | – | – | – | IC50 [10]: 35.9 µM (inactive); IC50 (Steroidogenic factor 1): 6.2 µM (active); IC50 [11]: 35.9 µM (inactive)
